Each structure is given as a SMILES string. ≈ marks a conversion by molar mass, not a printed value. *1 amine or outer side, *2 acyl side, *3 side chain or, on linkers, in order; H or OH if unused. Where a SMILES comes first, the peptide text is derived from it. Side-chain parts run from the residue outwards. [ ]: non-standard residue; d: D form. The star is where a group is joined. γGlu = O=C(O)[C@H](CCC(=O)[*:2])N[*:1]; Palmitoyl = CCCCCCCCCCCCCCCC(=O)*

A short description of one data set: physchem. The format is physicochemical. How it is done: Prior to the testing of solubility and stability of a peptide batch, its content was determined. Therefore, two parameters were investigated, its purity (HPLC-UV) and the amount of salt load of the batch (ion chromatography). Since synthesized peptides contain primarily trifluoracetate anions, only anion chromatography was performed. The content was then calculated based on the assumption that peptide-related impurities are detected at the same UV-absorption rate as the target peptide, as well as that cations are not present in the sample.
Therefore, solutions from solid samples were prepared in different buffer systems with a concentration of 1.0 mg/mL compound based on the previously determined content. HPLC-UV was performed after 2 h of gentle agitation from the supernatant, which was obtained by 20 min of centrifugation at 4000 rpm. […] This analysis also served as t0 for the stability testing.
Instrument: Agilent 1100, column: X-Bridge C18 3.5 μm 2.1×150 mm (Waters), eluent: A: H20+500 ppm TFA/B: Methanol, flow: 0.55 ml/min, gradient: 0-5 min: 10-60% B; 5-15 min: 60-99% B; detection: 214 nm.

In data set [1] the target is T1, human GLP-1 receptor (hGLP-1 R) (Homo sapiens, UniProt P43220).
T1 construct: expressed in transfected cells; host or cells: HEK-293
In words: cAMP response (HTRF) of HEK-293 cells stably expressing human GLP-1 receptor. The format is cell-based. The note with it: HEK-293 cells expressing human GLP-1 receptor, cAMP formation. In short, it runs like this: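 Detached HEK-293 cells stably expressing the receptor were suspended in HBSS with 20 mM HEPES, 0.1% BSA and 2 mM IBMX. Test compound was added for 30 min at room temperature, and cellular cAMP was quantified by HTRF.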
A general note: Time-resolved FRET reads energy transfer from a long-lived donor to a nearby acceptor.

T1 sequence (P43220 24-463): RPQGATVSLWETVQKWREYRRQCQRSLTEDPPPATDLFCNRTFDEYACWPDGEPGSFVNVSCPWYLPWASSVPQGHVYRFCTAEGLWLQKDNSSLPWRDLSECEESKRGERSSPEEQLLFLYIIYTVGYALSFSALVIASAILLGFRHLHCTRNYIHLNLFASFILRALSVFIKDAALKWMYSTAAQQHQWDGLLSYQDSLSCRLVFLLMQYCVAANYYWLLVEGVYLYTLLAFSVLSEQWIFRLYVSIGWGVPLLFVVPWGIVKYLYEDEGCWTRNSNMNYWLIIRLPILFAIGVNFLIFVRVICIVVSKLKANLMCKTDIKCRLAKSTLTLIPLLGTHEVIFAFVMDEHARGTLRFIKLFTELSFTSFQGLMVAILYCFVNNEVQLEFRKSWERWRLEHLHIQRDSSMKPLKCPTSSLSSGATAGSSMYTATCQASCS

For orientation: solubility means the dissolved amount per volume that the medium holds. As for `CCCCCCCCCCCCCCCC(=O)N[C@@H](CCC(=O)NCCCC[C@H](NC(=O)[C@H](CO)NC(=O)[C@@H]1CCCN1C(=O)[C@@H]1CCCN1C(=O)[C@@H]1CCCN1C(=O)[C@H](C)NC(=O)CNC(=O)[C@H](CO)NC(=O)[C@H](CO)NC(=O)[C@@H]1CCCN1C(=O)CNC(=O)CNC(=O)[C@H](C)NC(=O)[C@H](CCCCN)NC(=O)[C@H](CC(C)C)NC(=O)[C@H](Cc1c[nH]c2ccccc12)NC(=O)[C@H](CCC(=O)O)NC(=O)[C@@H](NC(=O)[C@H](Cc1ccccc1)NC(=O)[C@H](CC(=O)O)NC(=O)[C@H](CCC(N)=O)NC(=O)[C@H](C)NC(=O)[C@H](CCCNC(=N)N)NC(=O)[C@H](CCCNC(=N)N)NC(=O)[C@H](CO)NC(=O)[C@H](CCC(=O)O)NC(=O)[C@H](CCSC)NC(=O)[C@H](CCC(N)=O)NC(=O)[C@H](CCCCN)NC(=O)[C@H](CO)NC(=O)[C@H](CC(C)C)NC(=O)[C@H](CC(=O)O)NC(=O)[C@H](CO)NC(=O)[C@@H](NC(=O)[C@H](Cc1ccccc1)NC(=O)[C@@H](NC(=O)CNC(=O)[C@H](CCC(N)=O)NC(=O)[C@@H](CO)NC(=O)[C@@H](N)Cc1c[nH]cn1)[C@@H](C)O)[C@@H](C)O)[C@@H](C)CC)C(N)=O)C(=O)O` [(63)] (H-H[dS]QGTFTSDLSKQMESRRAQDFIEWLKAGGPSSGAPPPSK([γGlu-Palmitoyl])-NH2), the solubility at 2 h in “physchem” (pH 4.5) and in the data set “physchem” (pH 7.4) was greater than 1000 µg/mL in each case.

Regarding `CCCCCCCCCCCCCCCC(=O)N[C@@H](CCC(=O)NCCCC[C@H](NC(=O)[C@H](CO)NC(=O)[C@@H]1CCCN1C(=O)[C@@H]1CCCN1C(=O)[C@@H]1CCCN1C(=O)[C@H](C)NC(=O)CNC(=O)[C@H](CO)NC(=O)[C@H](CO)NC(=O)[C@@H]1CCCN1C(=O)CNC(=O)CNC(=O)[C@H](CC(N)=O)NC(=O)[C@H](CCCCN)NC(=O)[C@H](CC(C)C)NC(=O)[C@H](Cc1c[nH]c2ccccc12)NC(=O)[C@H](CCC(=O)O)NC(=O)[C@@H](NC(=O)[C@H](Cc1ccccc1)NC(=O)[C@H](CC(=O)O)NC(=O)[C@H](CCCCN)NC(=O)[C@H](C)NC(=O)[C@H](CCCNC(=N)N)NC(=O)[C@H](CCCNC(=N)N)NC(=O)[C@H](CCC(=O)O)NC(=O)[C@H](CC(=O)O)NC(=O)[C@H](CCSC)NC(=O)[C@H](CCC(N)=O)NC(=O)[C@H](CCCCN)NC(=O)[C@H](CO)NC(=O)[C@H](CC(C)C)NC(=O)[C@H](CC(=O)O)NC(=O)[C@H](CO)NC(=O)[C@@H](NC(=O)[C@H](Cc1ccccc1)NC(=O)[C@@H](NC(=O)CNC(=O)[C@H](CCC(N)=O)NC(=O)[C@@H](CO)NC(=O)[C@@H](N)Cc1c[nH]cn1)[C@@H](C)O)[C@@H](C)O)[C@@H](C)CC)C(N)=O)C(=O)O` [(70)] (H-H[dS]QGTFTSDLSKQMDERRAKDFIEWLKNGGPSSGAPPPSK([γGlu-Palmitoyl])-NH2), the solubility at 2 h in the data set “physchem” (pH 4.5) and in “physchem” (pH 7.4) was greater than 1000 µg/mL in each case.

As usually defined, the EC50 is the midpoint of the concentration-response curve. Higher therefore signals a less potent agent. Regarding `CCCCCCCCCCCCCCCC(=O)N[C@@H](CCC(=O)NCCCC[C@H](NC(=O)[C@H](CO)NC(=O)[C@@H]1CCCN1C(=O)[C@@H]1CCCN1C(=O)[C@@H]1CCCN1C(=O)[C@H](C)NC(=O)CNC(=O)[C@H](CO)NC(=O)[C@H](CO)NC(=O)[C@@H]1CCCN1C(=O)CNC(=O)CNC(=O)[C@H](CCCNC(=N)N)NC(=O)[C@H](CCCCN)NC(=O)[C@H](CC(C)C)NC(=O)[C@H](Cc1c[nH]c2ccccc12)NC(=O)[C@H](CCC(=O)O)NC(=O)[C@@H](NC(=O)[C@H](Cc1ccccc1)NC(=O)[C@H](CC(=O)O)NC(=O)[C@H](CCC(N)=O)NC(=O)[C@H](C)NC(=O)[C@H](CCCNC(=N)N)NC(=O)[C@H](CCCNC(=N)N)NC(=O)[C@H](CO)NC(=O)[C@H](CCC(=O)O)NC(=O)[C@H](CCSC)NC(=O)[C@H](CCC(N)=O)NC(=O)[C@H](CCCCN)NC(=O)[C@H](CO)NC(=O)[C@H](CC(C)C)NC(=O)[C@H](CC(=O)O)NC(=O)[C@H](CO)NC(=O)[C@@H](NC(=O)[C@H](Cc1ccccc1)NC(=O)[C@@H](NC(=O)CNC(=O)[C@H](CCC(N)=O)NC(=O)[C@@H](CO)NC(=O)[C@@H](N)Cc1c[nH]cn1)[C@@H](C)O)[C@@H](C)O)[C@@H](C)CC)C(N)=O)C(=O)O` [(75)] (H-H[dS]QGTFTSDLSKQMESRRAQDFIEWLKRGGPSSGAPPPSK([γGlu-Palmitoyl])-NH2), the solubility at 2 h in “physchem” (pH 4.5) and in the data set “physchem” (pH 7.4) was greater than 1000 µg/mL each time. For the same molecule, in data set [1], the midpoint of the response, the EC50, lay at 4.6 pM.

Regarding `CCCCCCCCCCCCCCCC(=O)N[C@@H](CCC(=O)NCCCC[C@H](NC(=O)[C@H](CO)NC(=O)[C@@H]1CCCN1C(=O)[C@@H]1CCCN1C(=O)[C@@H]1CCCN1C(=O)[C@H](C)NC(=O)CNC(=O)[C@H](CO)NC(=O)[C@H](CO)NC(=O)[C@@H]1CCCN1C(=O)CNC(=O)[C@@H](C)NC(=O)[C@H](CCCNC(=N)N)NC(=O)[C@H](CCCCN)NC(=O)[C@H](CC(C)C)NC(=O)[C@H](Cc1c[nH]c2ccccc12)NC(=O)[C@H](CCC(=O)O)NC(=O)[C@@H](NC(=O)[C@H](Cc1ccccc1)NC(=O)[C@H](CC(=O)O)NC(=O)[C@H](CCC(N)=O)NC(=O)[C@H](C)NC(=O)[C@H](CCCNC(=N)N)NC(=O)[C@H](CCCNC(=N)N)NC(=O)[C@H](CO)NC(=O)[C@H](CCC(=O)O)NC(=O)[C@H](CCSC)NC(=O)[C@H](CCC(N)=O)NC(=O)[C@H](CCCCN)NC(=O)[C@H](CO)NC(=O)[C@H](CC(C)C)NC(=O)[C@H](CC(=O)O)NC(=O)[C@H](CO)NC(=O)[C@@H](NC(=O)[C@H](Cc1ccccc1)NC(=O)[C@@H](NC(=O)CNC(=O)[C@H](CCC(N)=O)NC(=O)[C@@H](CO)NC(=O)[C@@H](N)Cc1c[nH]cn1)[C@@H](C)O)[C@@H](C)O)[C@@H](C)CC)C(N)=O)C(=O)O` [(76)] (H-H[dS]QGTFTSDLSKQMESRRAQDFIEWLKR[dA]GPSSGAPPPSK([γGlu-Palmitoyl])-NH2), the solubility at 2 h in “physchem” (pH 4.5) is 952 µg/mL (≈ 199 µM); in “physchem” (pH 7.4), greater than 1000 µg/mL.

Turning to `CCCCCCCCCCCCCCCC(=O)N[C@@H](CCC(=O)NCCCC[C@H](NC(=O)[C@H](CO)NC(=O)[C@@H]1CCCN1C(=O)[C@@H]1CCCN1C(=O)[C@@H]1CCCN1C(=O)[C@H](C)NC(=O)CNC(=O)[C@H](CO)NC(=O)[C@H](CO)NC(=O)[C@@H]1CCCN1C(=O)CNC(=O)CNC(=O)[C@H](CCCCN)NC(=O)[C@H](CCCCN)NC(=O)[C@H](CC(C)C)NC(=O)[C@H](Cc1c[nH]c2ccccc12)NC(=O)[C@H](CCC(=O)O)NC(=O)[C@@H](NC(=O)[C@H](Cc1ccccc1)NC(=O)[C@H](CC(=O)O)NC(=O)[C@H](CCC(N)=O)NC(=O)[C@H](C)NC(=O)[C@H](CCCNC(=N)N)NC(=O)[C@H](CCCNC(=N)N)NC(=O)[C@H](CO)NC(=O)[C@H](CCC(=O)O)NC(=O)[C@H](CCSC)NC(=O)[C@H](CCC(N)=O)NC(=O)[C@H](CCCCN)NC(=O)[C@H](CO)NC(=O)[C@H](CC(C)C)NC(=O)[C@H](CC(=O)O)NC(=O)[C@H](CO)NC(=O)[C@@H](NC(=O)[C@H](Cc1ccccc1)NC(=O)[C@@H](NC(=O)CNC(=O)[C@H](CCC(N)=O)NC(=O)[C@@H](CO)NC(=O)[C@@H](N)Cc1c[nH]cn1)[C@@H](C)O)[C@@H](C)O)[C@@H](C)CC)C(N)=O)C(=O)O` [(77)] (H-H[dS]QGTFTSDLSKQMESRRAQDFIEWLKKGGPSSGAPPPSK([γGlu-Palmitoyl])-NH2), the solubility at 2 h in the data set “physchem” (pH 4.5) and in the data set “physchem” (pH 7.4) was greater than 1000 µg/mL throughout.

Regarding `CCCCCCCCCCCCCCCC(=O)N[C@@H](CCC(=O)NCCCC[C@H](NC(=O)[C@H](CO)NC(=O)[C@@H]1CCCN1C(=O)[C@@H]1CCCN1C(=O)[C@@H]1CCCN1C(=O)[C@H](C)NC(=O)CNC(=O)[C@H](CO)NC(=O)[C@H](CO)NC(=O)[C@@H]1CCCN1C(=O)CNC(=O)CNC(=O)[C@H](CO)NC(=O)[C@H](CCCCN)NC(=O)[C@H](CC(C)C)NC(=O)[C@H](Cc1c[nH]c2ccccc12)NC(=O)[C@H](CCC(=O)O)NC(=O)[C@@H](NC(=O)[C@H](Cc1ccccc1)NC(=O)[C@H](CC(=O)O)NC(=O)[C@H](CCC(N)=O)NC(=O)[C@H](C)NC(=O)[C@H](CCCNC(=N)N)NC(=O)[C@H](CCCNC(=N)N)NC(=O)[C@H](CO)NC(=O)[C@H](CCC(=O)O)NC(=O)[C@H](CCSC)NC(=O)[C@H](CCC(N)=O)NC(=O)[C@H](CCCCN)NC(=O)[C@H](CO)NC(=O)[C@H](CC(C)C)NC(=O)[C@H](CC(=O)O)NC(=O)[C@H](CO)NC(=O)[C@@H](NC(=O)[C@H](Cc1ccccc1)NC(=O)[C@@H](NC(=O)CNC(=O)[C@H](CCC(N)=O)NC(=O)[C@@H](CO)NC(=O)[C@@H](N)Cc1c[nH]cn1)[C@@H](C)O)[C@@H](C)O)[C@@H](C)CC)C(N)=O)C(=O)O` [(78)] (H-H[dS]QGTFTSDLSKQMESRRAQDFIEWLKSGGPSSGAPPPSK([γGlu-Palmitoyl])-NH2), the solubility at 2 h in “physchem” (pH 4.5) and in “physchem” (pH 7.4) was greater than 1000 µg/mL each time. In data set [1], this molecule registered an EC50 of 4.2 pM.

The values are drawn from US9181305B2, “Exendin-4 peptide analogues” (SANOFI, priority 2012, dated 2015).
